Calls of active or inactive are those of the source. The rule behind the calls is not given here.
Experiments:
[1] = Inhibition of gamma-secretase expressed in african green monkey CV1 cells co-expressing Gal4 DNA-binding/transactivation domain assessed as inhibition of notch processing after 22 hrs by luciferase reporter assay; assay type: cell-based; conditions: CV-1, 22 h
[2] = target: Gamma-secretase; assay: Inhibition of gamma-secretase in human SHSY5Y cells expressing human recombinant Swedish variant of APP K595N/M596L assessed as reduction of amyloid beta40 level after 48 hrs by AlphaLISA assay; assay type: cell-based; conditions: sh-sy5y
[3] = target: Gamma-secretase; assay: Inhibition of gamma-secretase in human SHSY5Y cells expressing human recombinant Swedish variant of APP K595N/M596L assessed as reduction of amyloid beta42 level after 48 hrs by AlphaLISA assay; assay type: cell-based; conditions: sh-sy5y
[4] = target: T1, Gamma-secretase (Homo sapiens) (UniProt Q96BI3+Q9NZ42+Q8WW43+P49768+Q92542+P49810); assay: Inhibition of gamma-secretase in human SHSY5Y cells expressing human recombinant Swedish variant of APP K595N/M596L assessed as reduction of amyloid beta42 level after 24 hrs by DELFIA assay; assay type: cell-based; conditions: SH-SY5Y
[5] = target: T1, Gamma-secretase (Homo sapiens); assay: Inhibition of gamma-secretase in human SHSY5Y cells expressing human recombinant Swedish variant of APP K595N/M596L assessed as reduction of amyloid beta40 level after 24 hrs by DELFIA assay; assay type: cell-based; conditions: SH-SY5Y
[6] = target: T1, Gamma-secretase (Homo sapiens); assay: Inhibition of gamma-secretase in human SHSY5Y cells expressing human recombinant Swedish variant of APP K595N/M596L assessed as increase of total amyloid beta level after 24 hrs by DELFIA assay; assay type: cell-based; conditions: SH-SY5Y
[7] = Volume of distribution at steady state in Sprague-Dawley rat at 1 mg/kg, iv and 2 mg/kg, po; assay type: ADME, organism-based; conditions: in vivo, read-out: Vdss
[8] = Half life in Sprague-Dawley rat at 1 mg/kg, iv and 2 mg/kg, po; assay type: ADME, organism-based; conditions: in vivo
[9] = Blood clearance in Sprague-Dawley rat at 1 mg/kg, iv and 2 mg/kg, po; assay type: ADME, organism-based; conditions: whole blood
[10] = Oral bioavailability in Sprague-Dawley rat at 2 mg/kg; assay type: ADME, organism-based; conditions: in vivo
[11] = tested on: Rattus norvegicus; assay: Antialzheimer activity in Sprague-Dawley rat assessed as reduction of amyloid beta42 level in brain at 30 mg/kg/day, po for 5 days measured 6 hrs after last dose; assay type: functional; set-up: scale not given: the % may be the effect or the level left
[12] = tested on: Rattus norvegicus; assay: Toxicity in Sprague-Dawley rat assessed as effect on Notch-mediated CD4 level in thymocytes at 30 mg/kg/day, po for 5 days measured 6 hrs after last dose; assay type: organism-based; set-up: route oral; conditions: in vivo
[13] = tested on: Rattus norvegicus; assay: Toxicity in Sprague-Dawley rat assessed as effect on Notch-mediated CD8 level in thymocytes at 30 mg/kg/day, po for 5 days measured 6 hrs after last dose; assay type: organism-based; set-up: route oral; conditions: in vivo
[14] = Drug level in Sprague-Dawley rat brain at 30 mg/kg/day, po for 5 days measured 6 hrs after last dose; assay type: ADME, organism-based; set-up: route oral; conditions: read-out: Drug uptake
[15] = tested on: Rattus norvegicus; assay: Toxicity in Sprague-Dawley rat assessed as effect on Notch-mediated Hes-1 mRNA level in ileum at 30 mg/kg/day, po for 5 days measured 6 hrs after last dose; assay type: organism-based; set-up: route oral; conditions: in vivo
[16] = tested on: Brain; assay: Drug level in Sprague-Dawley rat brain at 30 mg/kg, po; assay type: ADME, organism-based; set-up: dose 30 mg/kg, route oral; conditions: in vivo, read-out: Drug uptake
[17] = tested on: SH-SY5Y; assay: Toxicity in human SH-SY5Y cells assessed as cell viability up to 3 uM by WST-1 assay; assay type: cell-based
[18] = Ratio of drug level in brain to blood in Sprague-Dawley rat at 30 mg/kg, po; assay type: ADME, organism-based; set-up: dose 30 mg/kg, route oral; conditions: brain/whole blood, read-out: BBR
[19] = tested on: Blood; assay: Drug level in Sprague-Dawley rat blood at 30 mg/kg, po; assay type: ADME, organism-based; set-up: dose 30 mg/kg, route oral; conditions: in vivo, read-out: Drug uptake

Compound	IC50 [1] [µM]	pIC50 [2]	pIC50 [3]	further results
COc1cc(-c2ccc(N[C@@H](C)c3ccc(F)cc3)nc2)ccc1-c1ccnc(C)c1	6.31	5.2	6.3	
COc1cc(-c2cnc(N[C@@H](C)c3ccc(F)cc3)s2)ccc1-n1cnc(C)c1		4.3	6.1	
COc1cc(-c2cnc(N[C@@H](C)c3ccc(F)cc3)nc2)ccc1-n1cnc(C)c1	10	6	6.7	
COc1cc(-c2ccc(N[C@@H](C)c3ccc(F)cc3)nc2)ccc1-n1cnc(C)c1 [listing 1 of 2 here]				inhibition [4]: Dose-dependent effect; inhibition [5]: Dose-dependent effect; inhibition [6]: Active
COc1cc(-c2ccc(N[C@@H](C)c3ccc(F)cc3)nc2)ccc1-c1sc(C)nc1C	10	5.3	6.4	
COc1cc(-c2nnc(N[C@@H](C)c3ccc(F)cc3)s2)ccc1-n1cnc(C)c1		6.2	7.1	
COc1cc(-c2ccc(N[C@@H](C)c3ccc(F)cc3)nc2)ccc1-c1cc(C)ns1	15.8	5.7	6.6	
Cc1cn(-c2ccc(-c3ccc(N[C@@H](C)c4ccc(F)cc4)nc3)cc2-c2ccccc2)cn1		5	4.8	
Cc1cn(-c2ccc(-c3ccc(N[C@@H](C)c4ccc(F)cc4)nc3)cc2N(C)C)cn1		4.4	4.3	
Cc1cn(-c2ccc(-c3ccc(N[C@@H](C)c4ccc(F)cc4)nc3)cc2Cl)cn1		5.7	6.4	
COc1cc(-c2ccc(N[C@@H](C)c3ccc(F)cc3)cn2)ccc1-n1cnc(C)c1	6.31	5	6.2	
COc1cc(-c2ccc(N[C@@H](C)c3ccc(F)cc3)nc2)ccc1-n1cnc(C)c1.Cl				Vd [7]: 3.7 L/kg; half-life [8]: 198 min; clearance [9]: 12.2 mL/min/kg; bioavailability [10]: 100%
CNC(=O)c1cc(-c2ccc(N[C@@H](C)c3ccc(F)cc3)nc2)ccc1-n1cnc(C)c1		< 4	< 4	
COc1cc(-c2cc(C)c(N[C@@H](C)c3ccc(F)cc3)nn2)ccc1-n1cnc(C)c1				Activity [11]: 45.7%; Activity [12]: Non-toxic; Activity [13]: Non-toxic; concentration at 6 h [14]: 10.4 µM; Activity [15]: Non-toxic
COc1cc(-c2ncc(N[C@@H](C)c3ccc(F)cc3)cn2)ccc1-n1cnc(C)c1	10	5.9	6.6	
CCOc1cc(-c2ccc(N[C@@H](C)c3ccc(F)cc3)nc2)ccc1-n1cnc(C)c1		5.3	6.3	
COc1cc(-c2ccc(N[C@@H](C)c3ccc(F)cc3)nc2)ccc1-c1ccnnc1	12.6	5.7	6.4	
Cc1cn(-c2ccc(-c3ccc(N[C@@H](C)c4ccc(F)cc4)nc3)cc2OC(C)C)cn1		5.1	5.5	
COc1cc(-c2ccc(N[C@@H](C)c3ccc(F)cc3)nc2)ccc1-n1cnc(C)c1 [listing 2 of 2 here]	10	6.1	6.9	Activity [11]: 27.6%; concentration [16]: 8.75 µM; Activity [12]: Non-toxic; Activity [13]: Non-toxic; Activity [17]: Non-toxic; concentration at 6 h [14]: 8.86 µM; Kp [18]: 1.74; Activity [15]: Non-toxic; concentration [19]: 4.98 µM
Cc1cn(-c2ccc(-c3ccc(N[C@@H](C)c4ccc(F)cc4)nc3)cc2C)cn1		4.8	5.2	
COc1cc(-c2noc(N[C@@H](C)c3ccc(F)cc3)n2)ccc1-n1cnc(C)c1		4.5	6.5	

From ChEMBL document CHEMBL1806427, “Pyridine-derived γ-secretase modulators” (Bioorg Med Chem Lett, 2011)
